Reference: patent US8563267B2, “Lycogen extract, composition thereof and method for the treatment using the same” (Asia-Pacific Beiotech Developing, Inc., priority 2010, dated 2013)

Experiments:
type I procollagen = test: Type I procollagen level in Hs68 human fibroblasts (Western blotting); format: cell-based; conditions: Hs68, without UV treatment, 24 hr; lycopene 0.1, 0.5, 10 μM; lycogen extract 1, 5, 10 μM
Description: The Hs68 human fibroblasts were treated with 20 J/cm^2 of UVA and then with 10, 25 and 50 μM of lycogen extract for 24 hr. The type I procollagen level was analyzed by using Western blotting analysis.
In addition, under condition without UV treatment, the Hs68 human fibroblasts were treated with 0.1, 0.5 and 10 μM lycopene (extracted from tomato) or 1, 5, 10 μM lycogen extract (extracted from photosynthetic bacteria of the present invention) for 24 hr. The type I procollagen level was analyzed by using Western blotting.

[1] = test tube studies; cited from earlier work
human lymphocytes = conditions: protection of human lymphocytes from free radical NO2; cited from earlier work

For `CC(C)=CCC/C(C)=C/C=C/C(C)=C/C=C/C(C)=C/C=C/C=C(C)/C=C/C=C(C)/C=C/C=C(\C)CCC=C(C)C` [lycopene], the “promotion of collagen proliferation (type I procollagen level)” value (type I procollagen) is given as “unable to promote collagen proliferation”, the “efficiency of singlet-oxygen quenching action relative to vitamin E” value [1] is given as 100 times and the “NO2 resistant effect relative to β-carotene” value (human lymphocytes) is given as “at least two times”.
